For this test, the target named is T1, small-conductance Ca2+-activated K+ channels (SK channels, subtype 2) (Homo sapiens, UniProt Q9H2S1).
T1 construct: expressed in transfected cells; host or cells: HEK293
Briefly: whole-cell patch-clamp of ionic current through SK2 channels in HEK293 cells (SC100). Type of test: cell-based. To be noted: concentration that increases the basal current by 100%; HEK293 cells expressing SK2 channels. Put shortly:
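Whole-cell patch-clamp recording of current in HEK293 cells expressing SK2 channels. SC100 is the compound concentration that increases basal current by 100%.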

On to `Cc1cc(C)n(-c2nc(NC3CCC(F)(F)CC3)cc(N3CC(C)OC(C)C3)n2)n1` (centres unmarked) [Compound 190, N-(4,4-difluorocyclohexyl)-2-(3,5-dimethyl-1H-pyrazol-1-yl)-6-(2,6-dimethylmorpholino)pyrimidin-4-amine], for which the SC100 entry was “++ (++ means 200 nM-1000 nM)”.

For the molecule `Cc1cc(C)n(-c2nc(NC3CCC(F)(F)CC3)cc(OCc3cnn(C)n3)n2)n1` [Compound 191, N-(4,4-difluorocyclohexyl)-2-(3,5-dimethyl-1H-pyrazol-1-yl)-6-((2-methyl-2H-1,2,3-triazol-4-yl)methoxy)pyrimidin-4-amine], the SC100 entry was “++ (++ means 200 nM-1000 nM)”.

Regarding `Cc1cc(C)n(-c2nc(CO)cc(NC3CCC(F)(F)C3)n2)n1` (centres unmarked) [Compound 192, (6-((3,3-difluorocyclopentyl)amino)-2-(3,5-dimethyl-1H-pyrazol-1-yl)pyrimidin-4-yl)methanol], the SC100 entry is reported as “++ (++ means 200 nM-1000 nM)”.

Regarding `COCc1cc(NC2CCC(F)(F)CC2)nc(-n2nc(C)cc2C)n1` [Compound 193], the SC100 result is recorded as “+ (+ means >1 uM)”.

Regarding `COCC1CN(c2cc(NC3CCC(F)(F)CC3)nc(-n3nc(C)cc3C)n2)CCO1` (centres unmarked) [Compound 194, N-(4,4-difluorocyclohexyl)-2-(3,5-dimethyl-1H-pyrazol-1-yl)-6-(2-(methoxymethyl)morpholino)pyrimidin-4-amine], the SC100 result was “++ (++ means 200 nM-1000 nM)”.

Take `Cc1cc(C)n(-c2cc(CN)cc(NC3CCC(F)(F)CC3)n2)n1` [Compound 195, 4-(aminomethyl)-N-(4,4-difluorocyclohexyl)-6-(3,5-dimethyl-1H-pyrazol-1-yl)pyridin-2-amine]: the SC100 entry was “++ (++ means 200 nM-1000 nM)”.

For `Cc1cc(NC2CCC(F)(F)CC2)nc(-n2cc(F)cn2)n1` [Compound 196, N-(4,4-difluorocyclohexyl)-2-(4-fluoro-1H-pyrazol-1-yl)-6-methylpyrimidin-4-amine], the SC100 entry is reported as “+ (+ means >1 uM)”.

In the case of `CCc1ccn(-c2nc(C)cc(NC3CCC(F)(F)CC3)n2)n1` [Compound 197, N-(4,4-difluorocyclohexyl)-2-(3-ethyl-1H-pyrazol-1-yl)-6-methylpyrimidin-4-amine], the SC100 result is reported as “++ (++ means 200 nM-1000 nM)”.

On to `Cc1cc(C)n(-c2nc(NC3CCC(F)(F)CC3)cc([C@H](C)O)n2)n1` [Compound 199, (+)1-(6-((4,4-difluorocyclohexyl)amino)-2-(3,5-dimethyl-1H-pyrazol-1-yl)pyrimidin-4-yl)ethan-1-ol], for which the SC100 result is on record as “++ (++ means 200 nM-1000 nM)”.

Take `Cc1cc(NC2CCC(F)(F)CC2)nc(-n2ccc(C(F)(F)F)n2)n1` [Compound 200, N-(4,4-difluorocyclohexyl)-6-methyl-2-(3-(trifluoromethyl)-1H-pyrazol-1-yl)pyrimidin-4-amine]: the SC100 entry is “++ (++ means 200 nM-1000 nM)”.

On to `Cc1cc(NC2CCC(F)(F)CC2)nc(-n2nc(C)c(F)c2C)n1` [Compound 201, N-(4,4-difluorocyclohexyl)-2-(4-fluoro-3,5-dimethyl-1H-pyrazol-1-yl)-6-methylpyrimidin-4-amine], for which the SC100 result is reported as “++ (++ means 200 nM-1000 nM)”.

For the molecule `Cc1cc(NC2CCC(F)(F)CC2)nc(-n2ccc(C(C)O)n2)n1` (centres unmarked) [Compound 202, 1-(1-(4-((4,4-difluorocyclohexyl)amino)-6-methylpyrimidin-2-yl)-1H-pyrazol-3-yl)ethan-1-ol], the SC100 result is recorded as “+ (+ means >1 uM)”.

On to `Cc1cc(NC2CCC(F)(F)CC2)nc(-n2ccc(C3CC3)n2)n1` [Compound 203, 2-(3-cyclopropyl-1H-pyrazol-1-yl)-N-(4,4-difluorocyclohexyl)-6-methylpyrimidin-4-amine], for which the SC100 result is “++ (++ means 200 nM-1000 nM)”.

As for `Cc1cc(NC2CCC(F)(F)CC2)nc(-n2ccc(CO)n2)n1` [Compound 204, (1-(4-((4,4-difluorocyclohexyl)amino)-6-methylpyrimidin-2-yl)-1H-pyrazol-3-yl)methanol], the SC100 entry was “+ (+ means >1 uM)”.
